Source: patent US20170356126A1, “LIQUID FILM CLEAVAGE AGENT” (Kao Corporation, priority 2014, published 2017)

Experimental: Further, the water solubility is considered to be applied also to menstrual blood, urine or the like which contains water as a main component.
Specifically, the agent is added for every 0.0001 g, and the measurement is performed.
These numerical values were measured by the above-mentioned measuring method. […] Moreover, the water solubility was measured by adding the agent for every 0.0001 g.

With “dimethyl silicone oil [Comparative Example 2, reference compound]” the “Water solubility of the above agent” value was 0.0001 g.
